Experimental data taken from patent US20190142953A1, “Dendrimer-Drug Conjugates, Hydrogel Compositions, and Methods” (Massachusetts Institute of Technology, priority 2016, published 2019).

Experiments:
[1] = Release from dendrimer:dextran hydrogel scaffold; format: physicochemical
Source text: The hydrogel matrix included a 10% solid content PAMAM dendrimer, generation 5, with 75% of the amines of its surface groups oxidized to alcohols (i.e., 32 amines and 96 alcohols), and a 10% solid content dextran aldehyde (10 kDa weight average molecule weight, with 50% oxidation to aldehydes).
Free doxorubicin was released in approximately 6 days, owing to the interactions between amine groups in the drug and aldehyde groups in the dextran. When amines in the doxorubicin structure were blocked with aconitic anhydride, the drug was released rapidly through the large pores of the hydrogel in 48 hours.

[2] = tested on: triple negative breast cancer (TNBC); experiment: In vivo therapeutic efficacy, murine model of triple negative breast cancer
[3] = In vivo organ distribution after systemic and local delivery; design: species or system mice
Experimental: An analysis was conducted of the organ distribution of both the dendritic pro-drugs and free doxorubicin after local and systemic administration. Fluorescently labelled dendritic pro-drugs of Example 5 or free drug were injected systemically and their distributions were assessed after 24 hours.

[4] = tested on: healthy mammary epithelial cells; experiment: Cytocidal effect in healthy cells; format: cell-based; conditions: equivalent free doxorubicin concentration
Source text: The next question studied was whether conjugated doxorubicin still maintained its cytotoxic effect.

EGFR [5] = molecular target: T1, EGFR (Homo sapiens, UniProt P00533); experiment: EGFR pathway activation (EGFR phosphorylation) by Western Blot; format: cell-based
T1 construct: endogenous in cells; host or cells: MDA-MB-468
Source text: EGFR signaling pathway is believed to induce growth, differentiation, migration, adhesion, and cell survival through various interacting signaling pathways. It is believed to be critical for the design of chemotherapeutic pro-drugs utilizing this receptor to ensure this pathway was not triggered, leading to further cancer cell proliferation and survival, which could counteract the effects of the chemotherapeutic drug.
Actin was used as an internal control in all gels.

EGFR [6] = molecular target: T1, EGFR; experiment: EGF/EGFmp competition for the receptor, EGFR activation by Western Blot; format: cell-based; conditions: mix of EGF and peptide, EGFR-overexpressing cancer cells
[7] = local in hydrogel scaffold, 72-hour post-implantation

Molecule: COc1cccc2c1C(=O)c1c(O)c3c(c(O)c1C2=O)C[C@@](O)(C(=O)CO)C[C@@H]3O[C@H]1C[C@H](N)[C@H](O)[C@H](C)O1 [free doxorubicin, doxorubicin]
- time to release from hydrogel [1]: approximately 6 days
- tumor shrinkage compared to untreated control ([2]; local in hydrogel, multiple doses (days 0, 11, 22), bioluminescence): 69%
- tumor reduction compared to untreated control ([2]; systemic administration): did not exhibit significant tumor volume reduction
- circulating level in blood ([3]; after local delivery): No circulating drug or dendritic pro-drug were observed in the blood
- level in blood (fluorescence) ([3]; after systemic administration): not statistically different than that of the untreated control
- accumulation in other organs [3, 7]: no accumulation was observed in other organs
- tumor accumulation, local therapy versus systemic administration [3, 7]: 5 times
- accumulation in other organs (spleen, heart, lungs, liver, kidneys) ([3]; systemic injection, 24 hours): no significant accumulation was observed in any other organ
- cell death [4]: over 90%

Molecule: NH2—CGGGGAEYLR-COOH (H-CGGGGAEYLR-OH) [EGFmp, EGF mimicking peptide modified with four glycine residues terminated with a cysteine]
- EGFR phosphorylation / pathway activation (EGFR [5]): none were observed
- blocking of EGF-mediated EGFR activation (EGFR [6]): did not behave as an EGF antagonist
